Results on 1 compound are retold here after ChEMBL document CHEMBL5154876, “Design, synthesis and promising anti-tumor efficacy of novel imidazo[1,2-a]pyridine derivatives as potent autotaxin allosteric inhibitors” (Eur J Med Chem, 2022).

Test [1] relates to RAW264.7. The test can be described thus: Induction of cell cycle arrest in mouse RAW264.7 cells assessed as accumulation of cells in G2 phase at 0.25 uM incubated for 24 hrs by PI/RNase staining based flow cytometric analysis (RVB = 10.90%). Type of test: functional. Background: A flow cytometer gives signals particle by particle.
In test [2] the test system is RAW264.7. The test can be described thus: Induction of apoptosis in mouse RAW264.7 cells assessed as apoptotic cells by measuring blue fluorescence after 48 hrs by Hoechst33342 staining based fluorescence microscopy. Type of test: functional, cell-based. The settings on record: dose 0.1-1 µM, DDE = dose-dependent effect.
In test [3] the test system is RAW264.7. As to the kind of experiment: Induction of apoptosis in mouse RAW264.7 cells assessed as necrotic cells at 0.5 uM after 48 hrs by Annexin V-FITC/PI based flow cytometric analysis (RVB=0.26%). Type of test: functional.
The subject of test [4] is RAW264.7. The test can be described thus: Induction of apoptosis in mouse RAW264.7 cells assessed as early apoptotic cells at 0.1 uM after 48 hrs by Annexin V-FITC/PI based flow cytometric analysis (RVB=5.57%). It is filed as functional.
For test [5], the system named is RAW264.7. The test can be described thus: Cytotoxicity against mouse RAW264.7 cells assessed as inhibition of cell growth incubated for 72 hrs by MTT assay. The settings on record: RAW264.7, 72 h. Type of test: functional, cell-based.
The test system of test [6] is RAW264.7. The test can be described thus: Induction of cell cycle arrest in mouse RAW264.7 cells assessed as accumulation of cells in G1 phase at 0.25 uM incubated for 24 hrs by PI/RNase staining based flow cytometric analysis (RVB = 55.06%). Type of test: functional.
Test [7] deals with RAW264.7. As to the kind of experiment: Induction of apoptosis in mouse RAW264.7 cells assessed as late apoptotic cells at 1 uM after 48 hrs by Annexin V-FITC/PI based flow cytometric analysis (RVB=0.098%). It is filed as functional.
Test [8] has as its system RAW264.7. As to the kind of experiment: Inhibition of colony formation in mouse RAW264.7 cells assessed as reduction in colony single area at 0.1 to 1 uM incubated for 72 hrs by crystal violet staining method. It is filed as functional, cell-based. To be noted: dose 0.1-1 µM.
Test [9] has as its system RAW264.7. As to the kind of experiment: Induction of apoptosis in mouse RAW264.7 cells assessed as necrotic cells at 0.25 uM after 48 hrs by Annexin V-FITC/PI based flow cytometric analysis (RVB=0.26%). It is filed as functional.
Test [10] concerns RAW264.7. The test can be described thus: Inhibition of colony formation in mouse RAW264.7 cells assessed as reduction in colony count at 0.1 to 1 uM incubated for 72 hrs by crystal violet staining method. Type of test: functional, cell-based. To be noted: dose 0.1-1 µM.
The subject of test [11] is RAW264.7. As to the kind of experiment: Induction of apoptosis in mouse RAW264.7 cells assessed as viable cells at 0.1 uM after 48 hrs by Annexin V-FITC/PI based flow cytometric analysis (RVB=94.1%). It is filed as functional. To be noted: read-out: Activity.

SMILES strings stand for the structures. pIC50: −log10 of the molar value. Activity calls are given as the source filed them. No cut-off for these calls is given here.

For orientation: pIC50 means −log10 of the IC50, conventionally taken in molar units. For `CCc1nc2c(C)cc(-c3ccc(CN4CCN(CCO)CC4)cc3)cn2c1NC(=O)OCc1cc(Cl)cc(Cl)c1`, the Activity with RAW264.7 [1] was 70.82%; with RAW264.7 [2] it was “Dde”; in the test on RAW264.7 [3], 1.03%; in the test on RAW264.7 [4], 6.04%; in the test with RAW264.7 [6] it was 10.61%; in the test with RAW264.7 [7] it was 0.74%. Also, in the test on RAW264.7 [9], the Activity came out at 0.28%. Further, the negative-log IC50 (pIC50) in the test with RAW264.7 [5] is 6.20. The inhibition result with RAW264.7 [8] and in the test with RAW264.7 [10] was “Active” each time. In the test on RAW264.7 [11], the viability at 0.1 µM stood at 92.8%.
